Assay results published in patent publication US7655819B2, “Polymers with antimicrobial, bioresistant and fungal resistant properties” (TPAT IP LLC, priority 2002, dated 2010).

How the values were obtained:
nematodes in the soil = conditions: prior art; cited from earlier work
[1] = prior art; cited from earlier work
[2] = test system: various strains of both gram positive and gram negative bacteria; conditions: cited from earlier work
fungus = conditions: cited from earlier work
[3] = test system: bacteria (bacterial count); experiment: ASTM D-3946-92 testing of metalworking fluid Encool SS with product incorporated; format: cell-based; conditions: day 5, 1×10^7 without product
Protocol: 1,128 g oleic acid and 400 g BNPD plus 2 g sulfuric were charged in a three neck round bottom flask with agitation, nitrogen, and condenser and heated to 350 F and held for 2.5 hrs until 80 ml of water were recovered. This product was then incorporated into Engineered Lubricants Encool SS at 6% and 10% of the concentrate.
These samples were then submitted for ASTM D-3946-92 testing.

Question: With `O=[N+]([O-])CBr` [bromonitromethane] as the molecule, how does the “effectiveness for the treatment of nematodes in the soil” value (nematodes in the soil) read?
Answer: The value was “effective”.

Question: And the “effectiveness as a general biocide” value [1]?
Answer: Its value is “effective”.

Question: What does the source list for `O=[N+]([O-])C(Br)(CO)CO` [BNPD, 2-bromo-2-nitro-propane-1-3-diol]?
Answer: average minimum inhibitory concentration ([2]; average over gram positive and gram negative strains): around 25 ppm; effective concentrations against bacteria ([2]; various strains of gram positive and gram negative bacteria): 1-50 ppm; antifungal activity (fungus): antifungal

Question: Which results are given for `CCCCCCC/C=C/CCCCCCCCC(=O)OCC(Br)(COC(=O)CCCCCCCC/C=C/CCCCCCC)[N+](=O)[O-]` [Example 7]?
Answer: bacterial count ([3]; 6% incorporation in Encool SS concentrate): 1.5×10^4; bacterial count ([3]; 10% incorporation in Encool SS concentrate): 3×10^3
